Assay: xn = mol fraction of the nth substance listed
Settings: 100 kPa, Liquid; for viscosity: Concentric cylinders viscometry; for mass density: Vibrating tube method

CN1CCC[C@H]1c1cccnc1 [(-)-3-(N-methylpyrrolidino)pyridine] + CC(O)CO
Settings | mass density [kg/m3] | viscosity [mPa·s]
293.15 K, x1 = 0.1 | 1035.04 | 59.35
293.15 K, x1 = 0.2009 | 1033.1 | 53.52
293.15 K, x1 = 0.3 | 1030.49 | 44.85
293.15 K, x1 = 0.4016 | 1027.64 | 35.02
293.15 K, x1 = 0.5 | 1024.73 | 26.04
293.15 K, x1 = 0.6005 | 1021.54 | 18.44
293.15 K, x1 = 0.7 | 1018.73 | 12.89
293.15 K, x1 = 0.7983 | 1015.98 | 9.269
293.15 K, x1 = 0.9 | 1012.96 | 6.875
293.15 K, x1 = 1 | 1010.23 | 4.694
298.15 K, x1 = 0.1 | 1031.1 | 43.28
298.15 K, x1 = 0.2009 | 1029.06 | 38.88
298.15 K, x1 = 0.3 | 1026.32 | 32.72
298.15 K, x1 = 0.4016 | 1023.44 | 25.84
298.15 K, x1 = 0.5 | 1020.54 | 19.6
298.15 K, x1 = 0.6005 | 1017.36 | 14.25
298.15 K, x1 = 0.7 | 1014.59 | 10.27
298.15 K, x1 = 0.7983 | 1011.83 | 7.576
298.15 K, x1 = 0.9 | 1008.87 | 5.707
298.15 K, x1 = 1 | 1006.16 | 4.048
303.15 K, x1 = 0.1 | 1027.18 | 32.21
303.15 K, x1 = 0.2009 | 1025 | 28.85
303.15 K, x1 = 0.3 | 1022.19 | 24.37
303.15 K, x1 = 0.4016 | 1019.27 | 19.44
303.15 K, x1 = 0.5 | 1016.35 | 14.99
303.15 K, x1 = 0.6005 | 1013.17 | 11.16
303.15 K, x1 = 0.7 | 1010.42 | 8.284
303.15 K, x1 = 0.7983 | 1007.68 | 6.286
303.15 K, x1 = 0.9 | 1004.77 | 4.834
303.15 K, x1 = 1 | 1002.1 | 3.518
308.15 K, x1 = 0.1 | 1023.28 | 24.46
308.15 K, x1 = 0.2009 | 1020.91 | 21.87
308.15 K, x1 = 0.3 | 1018.08 | 18.56
308.15 K, x1 = 0.4016 | 1015.09 | 14.98
308.15 K, x1 = 0.5 | 1012.14 | 11.73
308.15 K, x1 = 0.6005 | 1008.98 | 8.935
308.15 K, x1 = 0.7 | 1006.13 | 6.791
308.15 K, x1 = 0.7983 | 1003.54 | 5.264
308.15 K, x1 = 0.9 | 1000.64 | 4.12
308.15 K, x1 = 1 | 998.055 | 3.088
313.15 K, x1 = 0.1 | 1019.3 | 18.79
313.15 K, x1 = 0.2009 | 1016.8 | 16.79
313.15 K, x1 = 0.3 | 1013.89 | 14.33
313.15 K, x1 = 0.4016 | 1010.88 | 11.69
313.15 K, x1 = 0.5 | 1007.92 | 9.302
313.15 K, x1 = 0.6005 | 1004.79 | 7.224
313.15 K, x1 = 0.7 | 1002.03 | 5.605
313.15 K, x1 = 0.7983 | 999.39 | 4.425
313.15 K, x1 = 0.9 | 996.55 | 3.532
313.15 K, x1 = 1 | 994.014 | 2.758
318.15 K, x1 = 0.1 | 1015.29 | 14.91
318.15 K, x1 = 0.2009 | 1012.66 | 13.34
318.15 K, x1 = 0.3 | 1009.7 | 11.45
318.15 K, x1 = 0.4016 | 1006.65 | 9.438
318.15 K, x1 = 0.5 | 1003.69 | 7.62
318.15 K, x1 = 0.6005 | 1000.58 | 6.031
318.15 K, x1 = 0.7 | 997.85 | 4.779
318.15 K, x1 = 0.7983 | 995.25 | 3.839
318.15 K, x1 = 0.9 | 992.46 | 3.094
318.15 K, x1 = 1 | 989.984 | 2.411
323.15 K, x1 = 0.1 | 1011.25 | 12.03
323.15 K, x1 = 0.2009 | 1008.51 | 10.78
323.15 K, x1 = 0.3 | 1005.48 | 9.306
323.15 K, x1 = 0.4016 | 1002.41 | 7.746
323.15 K, x1 = 0.5 | 999.45 | 6.339
323.15 K, x1 = 0.6005 | 996.37 | 5.104
323.15 K, x1 = 0.7 | 993.67 | 4.124
323.15 K, x1 = 0.7983 | 991.1 | 3.375
323.15 K, x1 = 0.9 | 988.38 | 2.765
323.15 K, x1 = 1 | 985.962 | 2.195

CN1CCC[C@H]1c1cccnc1 [(-)-3-(N-methylpyrrolidino)pyridine] + OCCCO
Settings | mass density [kg/m3] | viscosity [mPa·s]
293.15 K, x1 = 0.1 | 1049.36 | 63.86
293.15 K, x1 = 0.1999 | 1045.43 | 63.55
293.15 K, x1 = 0.3 | 1041.3 | 55.97
293.15 K, x1 = 0.3994 | 1037.05 | 44.97
293.15 K, x1 = 0.5 | 1032.67 | 33.15
293.15 K, x1 = 0.6004 | 1028.25 | 22.75
293.15 K, x1 = 0.7 | 1023.76 | 14.91
293.15 K, x1 = 0.8 | 1019.33 | 9.805
293.15 K, x1 = 0.9 | 1014.74 | 6.894
293.15 K, x1 = 1 | 1010.23 | 4.694
298.15 K, x1 = 0.1 | 1045.96 | 48.97
298.15 K, x1 = 0.1999 | 1041.83 | 48.13
298.15 K, x1 = 0.3 | 1037.55 | 42.26
298.15 K, x1 = 0.3994 | 1033.17 | 34.05
298.15 K, x1 = 0.5 | 1028.72 | 25.35
298.15 K, x1 = 0.6004 | 1024.24 | 17.71
298.15 K, x1 = 0.7 | 1019.71 | 11.93
298.15 K, x1 = 0.8 | 1015.26 | 8.105
298.15 K, x1 = 0.9 | 1010.67 | 5.832
298.15 K, x1 = 1 | 1006.16 | 4.048
303.15 K, x1 = 0.1 | 1042.55 | 37.97
303.15 K, x1 = 0.1999 | 1038.21 | 36.9
303.15 K, x1 = 0.3 | 1033.78 | 32.31
303.15 K, x1 = 0.3994 | 1029.3 | 26.12
303.15 K, x1 = 0.5 | 1024.77 | 19.64
303.15 K, x1 = 0.6004 | 1020.24 | 13.95
303.15 K, x1 = 0.7 | 1015.68 | 9.624
303.15 K, x1 = 0.8 | 1011.2 | 6.722
303.15 K, x1 = 0.9 | 1006.61 | 4.943
303.15 K, x1 = 1 | 1002.1 | 3.518
308.15 K, x1 = 0.1 | 1039.14 | 29.84
308.15 K, x1 = 0.1999 | 1034.59 | 28.71
308.15 K, x1 = 0.3 | 1030.01 | 25.12
308.15 K, x1 = 0.3994 | 1025.41 | 20.41
308.15 K, x1 = 0.5 | 1020.81 | 15.5
308.15 K, x1 = 0.6004 | 1016.23 | 11.19
308.15 K, x1 = 0.7 | 1011.64 | 7.885
308.15 K, x1 = 0.8 | 1007.15 | 5.621
308.15 K, x1 = 0.9 | 1002.55 | 4.2
308.15 K, x1 = 1 | 998.055 | 3.088
313.15 K, x1 = 0.1 | 1035.71 | 23.69
313.15 K, x1 = 0.1999 | 1030.96 | 22.59
313.15 K, x1 = 0.3 | 1026.23 | 19.74
313.15 K, x1 = 0.3994 | 1021.52 | 16.11
313.15 K, x1 = 0.5 | 1016.85 | 12.36
313.15 K, x1 = 0.6004 | 1012.22 | 9.06
313.15 K, x1 = 0.7 | 1007.6 | 6.513
313.15 K, x1 = 0.8 | 1003.09 | 4.749
313.15 K, x1 = 0.9 | 998.498 | 3.625
313.15 K, x1 = 1 | 994.014 | 2.758
318.15 K, x1 = 0.1 | 1032.27 | 19.28
318.15 K, x1 = 0.1999 | 1027.32 | 18.26
318.15 K, x1 = 0.3 | 1022.43 | 15.95
318.15 K, x1 = 0.3994 | 1017.62 | 13.08
318.15 K, x1 = 0.5 | 1012.88 | 10.14
318.15 K, x1 = 0.6004 | 1008.21 | 7.559
318.15 K, x1 = 0.7 | 1003.56 | 5.549
318.15 K, x1 = 0.8 | 999.04 | 4.128
318.15 K, x1 = 0.9 | 994.453 | 3.18
318.15 K, x1 = 1 | 989.984 | 2.411
323.15 K, x1 = 0.1 | 1028.82 | 15.87
323.15 K, x1 = 0.1999 | 1023.66 | 14.94
323.15 K, x1 = 0.3 | 1018.63 | 13.05
323.15 K, x1 = 0.3994 | 1013.72 | 10.76
323.15 K, x1 = 0.5 | 1008.9 | 8.437
323.15 K, x1 = 0.6004 | 1004.18 | 6.389
323.15 K, x1 = 0.7 | 999.506 | 4.782
323.15 K, x1 = 0.8 | 994.989 | 3.625
323.15 K, x1 = 0.9 | 990.406 | 2.837
323.15 K, x1 = 1 | 985.962 | 2.195

Reference: the NIST ThermoML archive (doi:10.1016/j.jct.2016.07.005)
